From patent US10040791B2, “Isoxazole derivative as mutant isocitrate dehydrogenase 1 inhibitor” (Daiichi Sankyo Company, Limited, priority 2014, dated 2018)
Where two headings read alike, the source gives them in different places.

Assays:
[1] = target: IDH1R132C (Homo sapiens (Human), UniProt O75874, R132C); experiment: Inhibitory activity against IDH1R132C enzyme (NADPH detection, WST-8); format: biochemical; settings: 10 nM, residual NADPH detected with WST-8, read-out: Test Example 1 IDH1 R132C IC50
[2] = system: HT1080 xenografted mice (IDH1R132C); experiment: 2-HG production inhibitory activity using HT1080 xenografted mice; format: in vivo, mouse; settings: for response vs control in vivo at 75 mg/kg: Mus musculus, HT-1080, po, 6 h, read-out: Test Example 5 Ratio (%)
Method: HT1080 xenografted mice having successfully engrafted tumors were given by oral gavage each compound at 75 mg/kg a total of three times twice a day. The compound was suspended in a vehicle solution at 7.5 mg/mL using a homogenizer. Then, the suspension was stored at −20° C., thawed immediately before the administration, and given to mice. A negative control group for the test was given a vehicle by oral gavage. The body weights of the mice were measured using an automatic balance for small animals. The dosing solution was administered at a dose of 10 mL/kg body weight.
6 hours after the final administration, each mouse was euthanized with carbon dioxide. A portion of a tumor was collected, and its weight was measured using an electronic balance. Then, the tumor was frozen on dry ice. To the frozen tumor, methanol was added in an amount of 14 times the tumor weight. The resulting tumor was homogenized with Beads shocker (Yasui Kikai Corp.) and then incubated for 15 minutes in a freezer at −20° C. After centrifugation at 15000 rpm at 4° C. for 15 minutes using a high-speed refrigerated microcentrifuge, 250 μL of methanol and 400 μL of ultrapure water were added to 150 μL of the obtained supernatant. The prepared samples were subjected to 2-HG measurement.

[3] = system: HT-1080 cells expressing IDH1R132C; experiment: 2-HG production inhibitory activity using HT1080 cell; format: cell-based, human
Method: Then, 100 μL of growth medium B was added to each well, further 25 μL of a solution of each compound diluted to a predetermined concentration with growth medium B was added to each well, and the cells were incubated at 37° C. for 2 days under 5% CO2. […] Then, 150 μL of ultrapure water was further added to each well, and the mixture was stirred by pipetting and stored at −20° C.
The preserved solutions were thawed at room temperature.

[4] = 2-HG production, HT1080 xenografted mice
[5] = Homo sapiens, HT-1080, 2-HG production, HT1080 cells, read-out: Test Example 3 IC50

IDH1R132C, sequence (O75874 whole entry R132C): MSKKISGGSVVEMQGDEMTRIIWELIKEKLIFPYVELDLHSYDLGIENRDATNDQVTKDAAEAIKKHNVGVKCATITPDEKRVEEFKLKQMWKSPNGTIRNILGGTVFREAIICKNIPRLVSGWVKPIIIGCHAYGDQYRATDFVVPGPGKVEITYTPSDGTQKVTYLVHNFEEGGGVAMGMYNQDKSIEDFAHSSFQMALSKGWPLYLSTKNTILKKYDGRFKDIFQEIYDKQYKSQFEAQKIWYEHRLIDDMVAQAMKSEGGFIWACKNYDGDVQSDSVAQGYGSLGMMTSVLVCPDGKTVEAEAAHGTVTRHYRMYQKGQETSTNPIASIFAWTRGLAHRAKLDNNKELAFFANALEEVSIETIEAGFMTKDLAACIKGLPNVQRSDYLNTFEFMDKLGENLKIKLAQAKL

IC50 [1]	IC50 [3, 5]	Structure (SMILES)	response vs control in vivo at 75 mg/kg [2, 4]	Test Example 5 Ratio (%) [2, 4]	IC50 ([3]; 2-HG production, HT1080 cells, read-out: Test Example 3 IC50)	response vs control in vivo at 75 mg/kg [2]	IC50 ([3]; Homo sapiens, HT-1080, read-out: Test Example 3 IC50 (nM))
189 nM	194 nM	COC1(c2onc(-c3c(Cl)cc(Cl)cc3Cl)c2C(=O)n2ccc3c(/C=C/C(=O)O)cccc32)CC1 [Example 44, (2E)-3-(1-{[5-(1-Methoxycyclopropyl)-3-(2,4,6-trichlorophenyl)-1,2-oxazol-4-yl]carbonyl}-1H-indol-4-yl)prop-2-enoic acid]	72%	–	–	–	–
197 nM	459 nM	CC(C)(F)c1onc(-c2c(F)cc(Cl)cc2Cl)c1C(=O)n1ccc2c(/C=C/C(=O)O)cccc21 [Example 46, (2E)-3-(1-{[3-(2,4-Dichloro-6-fluorophenyl)-5-(2-fluoropropan-2-yl)-1,2-oxazol-4-yl]carbonyl}-1H-indol-4-yl)prop-2-enoic acid]	69%	–	–	–	–
98 nM	62 nM	Cc1cn(C(=O)c2c(-c3c(F)cc(Cl)cc3Cl)noc2C(C)(C)F)c2cccc(/C=C/C(=O)O)c12 [Example 47, (2E)-3-(1-{[3-(2,4-Dichloro-6-fluorophenyl)-5-(2-fluoropropan-2-yl)-1,2-oxazol-4-yl]carbonyl}-3-methyl-1H-indol-4-yl)prop-2-enoic acid]	17%	–	–	–	–
104 nM	173 nM	Cc1cn(C(=O)c2c(-c3c(Cl)cc(Cl)cc3Cl)noc2C(C)(C)F)c2c(F)ccc(/C=C/C(=O)O)c12 [Example 50, (2E)-3-(7-Fluoro-1-{[5-(2-fluoropropan-2-yl)-3-(2,4,6-trichlorophenyl)-1,2-oxazol-4-yl]carbonyl}-3-methyl-1H-indol-4-yl)prop-2-enoic acid]	84%	–	–	–	–
136 nM	263 nM	Cc1cn(C(=O)c2c(-c3c(F)cccc3Cl)noc2C(C)(C)F)c2cccc(/C=C/C(=O)O)c12 [Example 52, (2E)-3-(1-{[3-(2-Chloro-6-fluorophenyl)-5-(2-fluoropropan-2-yl)-1,2-oxazol-4-yl]carbonyl}-3-methyl-1H-indol-4-yl)prop-2-enoic acid]	71%	–	–	–	–
163 nM	146 nM	Cc1cn(C(=O)c2c(-c3c(Cl)cccc3Cl)noc2C(C)(C)F)c2cccc(/C=C/C(=O)O)c12 [Example 53, (2E)-3-(1-{[3-(2,6-Dichlorophenyl)-5-(2-fluoropropan-2-yl)-1,2-oxazol-4-yl]carbonyl}-3-methyl-1H-indol-4-yl)prop-2-enoic acid]	60%	–	–	–	–
125 nM	62 nM	Cc1cc(Cl)cc(C)c1-c1noc(C(C)(C)F)c1C(=O)n1cc(C)c2c(/C=C/C(=O)O)cccc21 [Example 55, (2E)-3-(1-{[3-(4-Chloro-2,6-dimethylphenyl)-5-(2-fluoropropan-2-yl)-1,2-oxazol-4-yl]carbonyl}-3-methyl-1H-indol-4-yl)prop-2-enoic acid]	15%	–	–	–	–
155 nM	69 nM	Cc1cn(C(=O)c2c(-c3ccc(Cl)cc3Cl)noc2C(C)(C)F)c2cccc(/C=C/C(=O)O)c12 [Example 62, (2E)-3-(1-{[3-(2,4-Dichlorophenyl)-5-(2-fluoropropan-2-yl)-1,2-oxazol-4-yl]carbonyl}-3-methyl-1H-indol-4-yl)prop-2-enoic acid]	–	10%	–	–	–
145 nM	193 nM	Cc1cn(C(=O)c2c(-c3cc(F)c(Cl)cc3Cl)noc2C(C)(C)F)c2cccc(/C=C/C(=O)O)c12 [Example 63, (2E)-3-(1-{[3-(2,4-Dichloro-5-fluorophenyl)-5-(2-fluoropropan-2-yl)-1,2-oxazol-4-yl]carbonyl}-3-methyl-1H-indol-4-yl)prop-2-enoic acid]	31%	–	–	–	–
198 nM	93 nM	CCc1cn(C(=O)c2c(-c3c(Cl)cc(Cl)cc3Cl)noc2C(C)(C)F)c2cccc(/C=C/C(=O)O)c12 [Example 65, (2E)-3-(3-Ethyl-1-{[5-(2-fluoropropan-2-yl)-3-(2,4,6-trichlorophenyl)-1,2-oxazol-4-yl]carbonyl}-1H-indol-4-yl)prop-2-enoic acid]	65%	–	–	–	–
122 nM	59 nM	CC(C)(F)c1onc(-c2c(Cl)cc(Cl)cc2Cl)c1C(=O)n1cc(Cl)c2c(/C=C/C(=O)O)cccc21 [Example 66, (2E)-3-(3-Chloro-1-{[5-(2-fluoropropan-2-yl)-3-(2,4,6-trichlorophenyl)-1,2-oxazol-4-yl]carbonyl}-1H-indol-4-yl)prop-2-enoic acid]	49%	–	–	–	–

The remaining lines, values behind:

Structure (SMILES)	IC50 [1]	IC50 [3, 5]	response vs control in vivo at 75 mg/kg [2, 4]	Test Example 5 Ratio (%) [2, 4]	IC50 ([3]; 2-HG production, HT1080 cells, read-out: Test Example 3 IC50)	response vs control in vivo at 75 mg/kg [2]	IC50 ([3]; Homo sapiens, HT-1080, read-out: Test Example 3 IC50 (nM))
COCC(C)(C)c1onc(-c2c(Cl)cc(Cl)cc2Cl)c1C(=O)n1ccc2c(/C=C/C(=O)O)cccc21 [Example 42, (2E)-3-(1-{[5-(1-Methoxy-2-methylpropan-2-yl)-3-(2,4,6-trichlorophenyl)-1,2-oxazol-4-yl]carbonyl}-1H-indol-4-yl)prop-2-enoic acid]	217 nM	178 nM	84%	–	–	–	–
Cc1cn(C(=O)c2c(-c3c(Cl)cc(Cl)cc3Cl)noc2C2(C)CC2)c2cccc(/C=C/C(=O)O)c12 [Example 43, (2E)-3-(3-Methyl-1-{[5-(1-methylcyclopropyl)-3-(2,4,6-trichlorophenyl)-1,2-oxazol-4-yl]carbonyl}-1H-indol-4-yl)prop-2-enoic acid]	139 nM	63 nM	54%	–	–	–	–
CC(C)(C)c1onc(-c2c(Cl)cc(Cl)cc2Cl)c1C(=O)n1ccc2c(/C=C/C(=O)O)ccc(F)c21 [Example 48]	193 nM	–	–	72%	115 nM	–	–
Cc1cn(C(=O)c2c(-c3c(Cl)cc(F)cc3Cl)noc2C(C)(C)F)c2cccc(/C=C/C(=O)O)c12 [Example 49, (2E)-3-(1-{[3-(2,6-Dichloro-4-fluorophenyl)-5-(2-fluoropropan-2-yl)-1,2-oxazol-4-yl]carbonyl}-3-methyl-1H-indol-4-yl)prop-2-enoic acid]	79 nM	119 nM	44%	–	–	–	–
Cc1cn(C(=O)c2c(-c3c(Cl)cc(Cl)cc3Cl)noc2C(C)(F)F)c2cccc(/C=C/C(=O)O)c12 [Example 51, (2E)-3-(1-{[5-(1,1-Difluoroethyl)-3-(2,4,6-trichlorophenyl)-1,2-oxazol-4-yl]carbonyl}-3-methyl-1H-indol-4-yl)prop-2-enoic acid]	115 nM	–	–	–	–	52%	83 nM
Cc1cn(C(=O)c2c(-c3c(F)cc(Cl)cc3F)noc2C(C)(C)F)c2cccc(/C=C/C(=O)O)c12 [Example 54, (2E)-3-(1-{[3-(4-Chloro-2,6-difluorophenyl)-5-(2-fluoropropan-2-yl)-1,2-oxazol-4-yl]carbonyl}-3-methyl-1H-indol-4-yl)prop-2-enoic acid]	109 nM	90 nM	–	16%	–	–	–
Cc1cc(Cl)c(-c2noc(C(C)(C)F)c2C(=O)n2cc(C)c3c(/C=C/C(=O)O)cccc32)c(Cl)c1 [Example 56, (2E)-3-(1-{[3-(2,6-Dichloro-4-methylphenyl)-5-(2-fluoropropan-2-yl)-1,2-oxazol-4-yl]carbonyl}-3-methyl-1H-indol-4-yl)prop-2-enoic acid]	107 nM	52 nM	28%	–	–	–	–
COC1(c2onc(-c3c(Cl)cc(Cl)cc3Cl)c2C(=O)n2cc(C)c3c(/C=C/C(=O)O)cccc32)CC1 [Example 57, (2E)-3-(1-{[5-(1-Methoxycyclopropyl)-3-(2,4,6-trichlorophenyl)-1,2-oxazol-4-yl]carbonyl}-3-methyl-1H-indol-4-yl)prop-2-enoic acid]	98 nM	26 nM	12%	–	–	–	–
Cc1cc(Cl)cc(Cl)c1-c1noc(C(C)(C)F)c1C(=O)n1cc(C)c2c(/C=C/C(=O)O)cccc21 [Example 59, (2E)-3-(1-{[3-(2,4-Dichloro-6-methylphenyl)-5-(2-fluoropropan-2-yl)-1,2-oxazol-4-yl]carbonyl}-3-methyl-1H-indol-4-yl)prop-2-enoic acid]	117 nM	56 nM	10%	–	–	–	–
Cc1cc(C)c(-c2noc(C(C)(C)F)c2C(=O)n2cc(C)c3c(/C=C/C(=O)O)cccc32)c(C)c1 [Example 60, (2E)-3-(1-{[5-(2-Fluoropropan-2-yl)-3-(2,4,6-trimethylphenyl)-1,2-oxazol-4-yl]carbonyl}-3-methyl-1H-indol-4-yl)prop-2-enoic acid]	116 nM	92 nM	9%	–	–	–	–
